Test results from ChEMBL document CHEMBL5126664, “Anti-Epstein-Barr Viral Agents from the Medicinal Herb-Derived Fungus Alternaria alstroemeriae Km2286” (J Nat Prod, 2022).
Values belong to the molecule of their own block, whether it stands above or below them.

How the values were obtained:
[1] = test system: BV-2; test: Antiinflammatory activity in mouse BV2 cells assessed as reduction in LPS-induced nitric oxide production at 10 uM by colorimetric assay relative to control; format: functional
[2] = test system: Human gammaherpesvirus 4; test: Antiviral activity against EBV infected in P3HR1 cells assessed as decrease in Rta cells at 10 uM measured after 24 hrs by Western blot analysis relative to control; format: functional; conditions: human gammaherpesvirus 4, P3HR-1
[3] = Cytotoxicity against human P3HR1 cells; format: toxicity, cell-based, P3HR-1
[4] = Selectivity index, ratio of CC50 for human P3HR1 cells to EC50 for EBV; format: toxicity; conditions: read-out: Ratio CC50/EC50
[5] = test system: Human gammaherpesvirus 4; test: Antiviral activity against EBV infected in P3HR1 cells assessed as decrease in viral replication; format: functional, organism-based; conditions: human gammaherpesvirus 4, P3HR-1
[6] = test system: BV-2; test: Antiinflammatory activity in mouse BV2 cells assessed as reduction in LPS-induced nitric oxide production by colorimetric assay; format: functional, cell-based

Compound: CC[C@H](C)[C@@H]1NC(=O)C(C(C)=O)=C1O [TENUAZONIC ACID]
inhibition at 10 µM [1]: 62.9%
inhibition at 10 µM [2]: 23%

Compound: O=C1C=Cc2c3c4c(c(O)ccc4c4ccc(O)c1c24)[C@@H](O)[C@H](O)[C@@H]3O
CC50 [3]: 86100 nM
selectivity ratio [4]: 64.3
inhibition at 10 µM [1]: 20.2%
EC50 [5]: 1340 nM
inhibition at 10 µM [2]: 100%

Compound: O=C1C=Cc2c3c4c(c(O)ccc4c4ccc(O)c1c24)[C@@H](O)[C@@H](Cl)[C@H]3O
CC50 [3]: 39400 nM
selectivity ratio [4]: 26.1
IC50 [6]: 730 nM
inhibition at 10 µM [1]: 94.9%
EC50 [5]: 1510 nM
inhibition at 10 µM [2]: 100%

Compound: CC[C@H](C)[C@H]1NC(=O)C(C(C)=O)=C1O
inhibition at 10 µM [1]: 41.1%
inhibition at 10 µM [2]: -5%

Compound: O=C1C=Cc2c3c4c(c(O)ccc4c4ccc(O)c1c24)[C@@H](O)[C@H](Cl)[C@@H]3O
CC50 [3]: > 100000 nM
selectivity ratio [4]: > 32
IC50 [6]: 2060 nM
inhibition at 10 µM [1]: 76.2%
EC50 [5]: 3130 nM
inhibition at 10 µM [2]: 100%

Second part, led by results:

IC50 [6]: 330 nM
EC50 [5]: 170 nM
Compound: O=C1C[C@H](SCC(O)C(=O)O)[C@@]2(O)c3c(ccc(O)c31)-c1ccc(O)c3c1[C@@H]2[C@@H](Cl)[C@H](O)[C@@H]3O (stereo partly drawn)
CC50 [3]: 2300 nM
selectivity ratio [4]: 13.5
inhibition at 10 µM [1]: 102%
inhibition at 10 µM [2]: 100%

IC50 [6]: 3250 nM
Compound: O=C1C[C@@H](O)[C@@H]2c3ccc(O)c4c3[C@@H](c3ccc(O)c1c32)[C@H](O)CC4=O [STEMPHYPERYLENOL]
inhibition at 10 µM [1]: 77.4%
inhibition at 10 µM [2]: 34%

IC50 [6]: 2730 nM
EC50 [5]: 1210 nM
Compound: CO[C@H]1c2c3c4c(c(O)ccc4c4ccc(O)c(c24)[C@@H](O)[C@H]1O)C(=O)C=C3
CC50 [3]: 60200 nM
selectivity ratio [4]: 49.7
inhibition at 10 µM [1]: 105%
inhibition at 10 µM [2]: 100%

IC50 [6]: 4080 nM
EC50 [5]: 2420 nM
Compound: O=C1C[C@H](O)[C@H]2c3ccc(O)c4c3[C@H](c3ccc(O)c1c32)[C@@H](O)[C@@H](Cl)[C@@H]4O
CC50 [3]: 61200 nM
selectivity ratio [4]: 25.3
inhibition at 10 µM [1]: 92.1%
inhibition at 10 µM [2]: 100%

IC50 [6]: 2690 nM
Compound: COc1cc(/C=C/C(=O)CC(=O)/C=C/c2ccc(O)c(OC)c2)ccc1O [CURCUMIN]
